# Results reported in US9205068B2 (priority 2008, dated 2015).
# “And” between values parts separate entries of the source, which are not always exact repeats. Identical values can stand only once.
# Assays:
# [1] = test system: CTA1 dislocation from the ER to the cytosol of HeLa cells; type: cell-based
# [2] = test system: CTA1 secretion from intoxicated HeLa cells; type: cell-based
# His6-tagged CTA1 = His6-tagged CTA1 (Vibrio cholerae serotype O1, UniProt P01555); type: binding
# [3] = test system: CT intoxication of CHO cells; type: cell-based
# [4] = test system: forskolin-stimulated adenylate cyclase activity; type: cell-based
# thermolysin = thermolysin (Bacillus thermoproteolyticus, UniProt P00800); type: biochemical
# 20S proteasome = type: biochemical
# [5] = cited from earlier work
# [6] = molecular target: interaction between GRP94 and CTA1 (Homo sapiens, UniProt P14625); type: binding
# [7] = molecular target: catalytic A1 polypeptide of cholera toxin (CTA1) (Vibrio cholerae serotype O1, UniProt P01555); type: binding
# [8] = molecular target: catalytic subunit of pertussis toxin (PTS1) (Bordetella pertussis, UniProt P04977); type: binding, B. pertussis; conditions: PTS1, 100 μM PBA
# [9] = molecular target: cell-binding B subunit of CT (Vibrio cholerae serotype O1, UniProt P01556)
# CT = conditions: in vivo
# Shiga toxin = type: cell-based
# [10] = in vivo, po; cited from earlier work
# His6-tagged CTA1, sequence (P01555 19-212 limits assumed): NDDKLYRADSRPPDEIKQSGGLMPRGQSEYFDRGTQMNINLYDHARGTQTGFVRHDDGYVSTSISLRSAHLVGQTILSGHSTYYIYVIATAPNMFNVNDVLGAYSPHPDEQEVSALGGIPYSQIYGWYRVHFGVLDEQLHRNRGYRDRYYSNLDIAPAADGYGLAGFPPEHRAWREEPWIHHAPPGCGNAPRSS
# catalytic A1 polypeptide of cholera toxin (CTA1), sequence (P01555 19-212 limits assumed): as above
# catalytic subunit of pertussis toxin (PTS1), sequence (P04977 35-269 limits assumed): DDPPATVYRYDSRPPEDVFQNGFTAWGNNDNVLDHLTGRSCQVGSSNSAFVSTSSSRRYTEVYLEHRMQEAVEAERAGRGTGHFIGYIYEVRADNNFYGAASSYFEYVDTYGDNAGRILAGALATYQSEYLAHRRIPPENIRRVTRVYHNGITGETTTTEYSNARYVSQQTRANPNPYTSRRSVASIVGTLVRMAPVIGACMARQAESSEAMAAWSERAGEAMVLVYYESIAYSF
# thermolysin, sequence (P00800 233-548): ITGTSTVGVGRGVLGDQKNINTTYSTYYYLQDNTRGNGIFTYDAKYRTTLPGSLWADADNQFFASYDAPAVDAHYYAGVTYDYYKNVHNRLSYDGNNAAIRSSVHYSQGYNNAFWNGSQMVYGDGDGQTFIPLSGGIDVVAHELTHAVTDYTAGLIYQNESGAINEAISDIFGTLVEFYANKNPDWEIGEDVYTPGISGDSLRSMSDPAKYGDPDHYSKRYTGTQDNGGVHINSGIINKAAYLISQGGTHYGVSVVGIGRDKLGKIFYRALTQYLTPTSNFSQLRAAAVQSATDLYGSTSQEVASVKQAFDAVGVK
# interaction between GRP94 and CTA1, sequence (P14625 22-803 limits assumed): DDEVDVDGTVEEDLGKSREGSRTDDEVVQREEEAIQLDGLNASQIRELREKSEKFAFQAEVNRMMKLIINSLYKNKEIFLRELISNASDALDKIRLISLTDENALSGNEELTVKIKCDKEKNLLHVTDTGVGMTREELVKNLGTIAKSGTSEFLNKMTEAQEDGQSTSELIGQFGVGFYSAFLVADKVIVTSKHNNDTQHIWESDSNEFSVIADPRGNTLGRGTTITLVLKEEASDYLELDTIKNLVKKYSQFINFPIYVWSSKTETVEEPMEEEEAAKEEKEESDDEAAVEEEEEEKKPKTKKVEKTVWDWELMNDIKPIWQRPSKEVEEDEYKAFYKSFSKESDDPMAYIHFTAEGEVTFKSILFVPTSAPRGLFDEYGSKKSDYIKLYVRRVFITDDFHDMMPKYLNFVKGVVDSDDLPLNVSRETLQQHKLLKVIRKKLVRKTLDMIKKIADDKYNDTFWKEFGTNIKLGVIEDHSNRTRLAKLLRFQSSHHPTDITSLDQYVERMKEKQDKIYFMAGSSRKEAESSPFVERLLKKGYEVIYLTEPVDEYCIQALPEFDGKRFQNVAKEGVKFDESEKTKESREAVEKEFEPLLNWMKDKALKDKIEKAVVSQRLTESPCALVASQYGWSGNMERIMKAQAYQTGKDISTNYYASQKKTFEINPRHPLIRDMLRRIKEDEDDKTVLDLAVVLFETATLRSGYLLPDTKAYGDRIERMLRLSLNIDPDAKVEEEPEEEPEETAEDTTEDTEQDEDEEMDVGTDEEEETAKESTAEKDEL
# cell-binding B subunit of CT, sequence (P01556 22-124 limits assumed): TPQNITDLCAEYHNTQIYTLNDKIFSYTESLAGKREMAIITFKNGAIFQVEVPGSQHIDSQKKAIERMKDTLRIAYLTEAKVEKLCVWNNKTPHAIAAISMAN
compound,measurement,setting,value
brefeldin A [BfA],cytosolic pool of CTA1 by SPR,[1],No signal
same,CTA1 in the medium by SPR,[2],could not detect an appreciable amount of CTA1 in the medium
OCC(O)CO [glycerol],CTA1 secondary structure Tm,His6-tagged CTA1,39±0.5 °C
same,CTA1 tertiary structure transition temperature (Tm),His6-tagged CTA1,39.5±1 °C
same,initial secondary structure retained at 37° C.,His6-tagged CTA1,~60%
same,initial tertiary structure retained at 37° C.,His6-tagged CTA1,58%
same,CT concentration for 50% maximal response,[3],35 ng of CT/ml
same,CT intoxication (cAMP response),[3],resistant to CT
same,cAMP relative to cells treated with forskolin alone,[4],105%
same,cytosolic pool of CTA1 by SPR,[1],failed to generate a positive cytosolic signal for CTA1
same,"cytosolic pool of CTA1 by SPR, time course",[1],could not be detected
same,reduction in cytosolic CTA1,[1],3 fold and 5 fold
same,total cellular pool of CTA1 present in the cytosolic fraction,[1],7±4%
same,CTA1 secreted into medium versus untreated cells,[2],twice as much CTA1 as the untreated control cells
same,thermolysin-mediated proteolysis of a-casein,thermolysin,did not prevent the thermolysin-mediated proteolysis of a-casein
same,a-casein degradation by the 20S proteasome,20S proteasome,did not inhibit a-casein degradation by the 20S proteasome
same,t1/2 of equilibration across the plasma membrane,[5],5 min
N-ethylcarboxamidoadenosine [NECA],CT intoxication (cAMP response),[3],same response to CT as the untreated cells
same,cytosolic CTA1 by Western blot,[1],unaffected by NECA treatment
same,cytosolic pool of CTA1 by SPR,[1],response comparable to the response from cells intoxicated in the absence of drug treatment
same,effect on GRP94 binding to CTA1,[6],blocked by both GA and NECA
"O=C([O-])CCCc1ccccc1.[Na+] [PBA, sodium 4-phenylbutyrate]",Melting temperature (Tm) Fluorescence,[7],37.5 °C and 38.5 °C and 41.0 °C
same,Melting temperature (Tm) Near UV,[7],33.0 °C and 35.0 °C
same,transition temperature Far UV,[8],33.0 °C
same,transition temperature Near UV,[8],36.0 °C
same,CT activity against cultured cells,[3],blocks CT activity against cultured cells in a dose-dependent manner
same,concentration effective against CT intoxication of cultured cells,[3],10 to 100 µM
same,binding to cell-binding B subunit of CT,[9],does not bind
same,cytosolic pool of CTA1 by SPR,[1],less CTA1 was found in the cytosol
same,CT activity in the ileal loop test system,CT,blocks CT activity in the ileal loop test system
same,protection against Shiga toxin,Shiga toxin,do not protect cultured cells against Shiga toxin
same,PBA serum levels,[10],"600-1,700 uM"
